Results: patent US20070213359A1 (ACADIA Pharmaceuticals Inc., priority 2005, published 2007)
Where two headings read alike, the source gives them in different places.

How the values were obtained:
[1] = target: T1, GHSR1a receptor (Homo sapiens, UniProt Q92847); test: 125I-Ghrelin binding assay; conditions: displacement of 125I-ghrelin (0.053 nM), membranes of HEK293 cells transfected with GHSR1a, Cheng-Prussoff, '—' not defined
T1 construct: expressed in transfected cells; host or cells: HEK293 (membranes)
T1 sequence (Q92847 whole entry): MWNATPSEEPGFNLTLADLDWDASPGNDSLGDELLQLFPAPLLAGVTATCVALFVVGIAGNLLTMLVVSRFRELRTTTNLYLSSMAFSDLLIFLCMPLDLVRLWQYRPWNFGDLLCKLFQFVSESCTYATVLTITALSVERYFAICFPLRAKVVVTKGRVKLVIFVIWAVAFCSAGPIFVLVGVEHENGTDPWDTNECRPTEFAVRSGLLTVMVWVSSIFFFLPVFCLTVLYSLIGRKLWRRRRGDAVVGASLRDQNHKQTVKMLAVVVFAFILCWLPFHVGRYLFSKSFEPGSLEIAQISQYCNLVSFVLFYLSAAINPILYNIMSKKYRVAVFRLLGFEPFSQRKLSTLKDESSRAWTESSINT
Description: Plasmid DNA containing the GHSR1a receptor (12.5 ug/dish) in 0.675 ml DMEM was transfected into the cells by mixing with 180 ul PolyFect, 15 min later mixing in 2.25 ml 10% CS/DMEM, and transferring the mixture into the dish. At 16-18 h post transfection, medium was replaced with 25 ml fresh 10% FCS/1% PSG/DMEM to each dish for another 18-20 h. At approximately 48 hours post-transfection, cells were harvested in ice-cold membrane buffer (20 mM HEPES, 6 mM MgCl2, 1 mM EDTA, pH to 7.2) using a cell scraper, and pelleted by centrifugation.
Pelleted cells were added to a nitrogen cavitation chamber and 900 bar of pressure applied for 30 min. The pressure was slowly released the cavitated cells collected in 50 ml falcon tubes. The tubes were centrifuged at 1000 rpm, 4° C. for 10 min, and the supernatant collected. This centrifugation and collection was repeated two more times until the supernatant was free of precipitate (membranes are still in suspension). The supernatant was poured into a 50 ml centrifuge tube and centrifuged at 10.000 rpm, 4° C. for 20 min. The supernatant was discarded and the pellet re-suspended in 750 μl membrane binding buffer using a chilled 1 ml syringe with 25G5/8 needle to re-suspend membranes. The protein concentration was determined using the BioRad Protein Assay Dye Reagent according to the manufacturers instructions. The protein concentration was adjusted to 5 mg/ml and aliquots snap-frozed and stored at −80 C until use.
Membranes were thawed rapidly; diluted with binding buffer (25 mM Hepes+5 mM MgCl2, 1 mM CaCl2, 2.5 mM EDTA and 0.2% BSA) to a protein concentration of 0.8 ug/30 ul and placed on ice. 96-well plates (U-bottom wells) were prepared with serial dilutions (8 doses, 40 ul/w) of the test compounds. Membranes (30 uL/well) were then added, and incubated with test ligands for 30 min at room temperature with shaking. […] Binding was terminated by filtration through GF/B filters (presoaked with 0.1% polyethylenimine) with a Brandel 96-well harvester. The filters were washed with ice-cold binding buffer (150 ml/plate) and allowed to air-dry for 30 min. 50 ul MicroScient-20 cocktail was added to each dried well, the plates were sealed, and counted for 2 min/well using a TopCount scintillation counter (Packard).

[2] = target: Ghrelin receptor (Homo sapiens, UniProt Q92847); test: Receptor Selection and Amplification Technology (R-SAT) assay; format: cell-based; set-up: expressed in transfected cells; host or cells: NIH3T3; conditions: for IC50: '—' not defined (nd used separately), read-out: RSAT pIC50 (converted); for Emax: read-out: RSAT Eff(%)
Ghrelin receptor, sequence (Q92847 whole entry): as above

[3] = read-out: Binding pKi (converted)
[4] = negative logarithm of ligand concentration causing 50% inhibition of constitutive receptor response, transfected NIH3T3 cells
[5] = percent inhibition at saturating ligand, normalized to reference ligand Substance P analog = 100%

Row | Structure (SMILES) | Ki ([1]; Binding pKi) | IC50 ([2]; […]) | Emax [2] | Ki [1, 3] | IC50 [2, 4] | Emax [2, 5] | RSAT Eff(%) [2, 5]
1 | COc1cccc2c(C(=O)C3CC3)cn(CCCN3CCC(Oc4ccccc4Cl)CC3)c12 | 3.16 µM | 0.0501 µM | 102% |  |  |  | 
2 | COc1ccc(C(=O)OC2C[C@H]3CC[C@@H](C2)N3CCCn2cc(C(C)=O)c3cccc(OC)c32)cc1OC (stereo partly shown) |  |  | 104% | 1 µM | 0.0501 µM |  | 
3 | COc1cccc2c(C(=O)NCC(C)C)cn(CCCN3CCC(CCOc4ccc(Cl)cc4)CC3)c12 | 0.158 µM |  | 45% |  |  |  | 
4 | CC(=O)c1cn(CCCN2C3CCC2CC(Oc2ccccc2Cl)C3)c2ncccc12 (stereo not shown) |  |  |  | 0.0316 µM | 0.02 µM | 108% | 
5 | CCCCC1CCN(CCCn2cc(C(=O)NCc3cccc(C)c3)c3cccc(OC)c32)CC1 |  | 0.0158 µM | 72% | 0.316 µM |  |  | 
6 | COc1cccc2c(C(=O)Cc3ccccc3)cn(CCCN3CCCN(Cc4ccccc4Cl)CC3)c12 |  | 0.000501 µM | 92% | 0.00631 µM |  |  | 
7 | COc1cccc2c(C(=O)NCc3cccc(Cl)c3)cn(CCCN3CCC(Oc4ccc(Cl)cc4)CC3)c12 | 0.631 µM | 0.0501 µM | 123% |  |  |  | 
8 | COc1cccc2c(C(C)=O)cn(CCCN3CCN(c4ccc(C(F)(F)F)cc4[N+](=O)[O-])CC3)c12 |  |  |  | 0.631 µM | 0.0398 µM | 94% | 
9 | CC(=O)c1cn(CCCN2CCCN(Cc3ccccc3Cl)CC2)c2c(C#N)cccc12 |  |  |  | 0.0631 µM | 0.00631 µM | 98% | 
10 | COc1cccc2c(C(C)=O)cn(CCCN3C4CCC3CC(Oc3ccc(Cl)cc3)C4)c12 (stereo not shown) |  |  |  | 0.501 µM | 0.0126 µM |  | 113%
11 | COc1cccc2c(C(=O)c3ccccc3)cn(CCCN3CCN(CCOc4ccccc4)CC3)c12 |  | 0.0126 µM | 98% | 0.251 µM |  |  | 
12 | CC(=O)c1cn(CCCN2CCC(Oc3ccccc3Cl)CC2)c2c(C)cccc12 |  |  |  | 0.631 µM | 0.02 µM | 110% | 
13 | CC(=O)c1c(C)n(CCCN2CCC(Oc3cccc(Cl)c3)CC2)c2c(Br)cccc12 |  |  |  | 0.631 µM |  | 35% | 
14 | COc1cccc2c(C(=O)Cc3ccccc3)cn(CCCN3CCCN(Cc4ccc(F)cc4)CC3)c12 |  | 0.000398 µM | 87% | 0.00794 µM |  |  | 
15 | COc1cccc2c(C(=O)NCC(C)C)cn(CCCN3C4CCC3CC(Oc3ccccc3Cl)C4)c12 (stereo not shown) |  |  |  | 0.1 µM | 0.01 µM |  | 116%
16 | CCCCC1CCN(CCCn2cc(C(C)=O)c3cccc(OC)c32)CC1 |  |  |  | 1.58 µM | 0.02 µM | 116% | 
17 | COc1cccc2c(C(=O)NCC(C)C)cn(CCCN3CCCN(CCc4ccccc4)CC3)c12 | 0.794 µM | 0.1 µM | 114% |  |  |  | 
18 | COc1cccc2c(C(=O)NCc3cccc(Cl)c3)cn(CCCN3C4CCC3CC(Oc3ccc(F)cc3)C4)c12 (stereo not shown) | 0.158 µM | 0.0398 µM | 152% |  |  |  | 
19 | COc1cccc2c(C(=O)c3ccccc3)cn(CCCN3CCCN(Cc4ccccc4Cl)CC3)c12 |  | 0.000398 µM | 98% | 0.00398 µM |  |  | 
20 | COc1cccc2c(C(C)=O)cn(CCCN3CCN(c4ccc(C#N)cc4)CC3)c12 |  |  |  | 0.631 µM | 0.0126 µM | 90% | 
21 | COc1cccc2c(C(=O)NCc3cccc(C)c3)cn(CCCN3CCC(Oc4ccc(F)cc4)CC3)c12 | 0.1 µM | 0.00316 µM | 81% |  |  |  | 
22 | CC(=O)c1c(C)n(CCCN2CCCN(Cc3ccccc3Cl)CC2)c2c(Br)cccc12 |  |  |  | 0.398 µM |  | -14% | 
23 | CC(=O)c1cn(CCCN2C3CCC2CC(CC(=O)c2ccccc2)C3)c2c(Br)cccc12 (stereo not shown) | 0.1 µM | 0.00794 µM | 111% |  |  |  | 
24 | CC(=O)c1cn(CCCN2CCC(Oc3cccc(Cl)c3)CC2)c2ncccc12 |  |  |  | 0.316 µM | 0.0158 µM | 124% | 
25 | COc1cccc2c(C(=O)Cc3ccccc3)cn(CCCN3CCC(CCOc4ccc(Cl)cc4)CC3)c12 | 0.251 µM | 0.0251 µM | 121% |  |  |  | 

Row | Structure (SMILES) | Ki ([1]; Binding pKi) | IC50 ([2]; […]) | Emax [2] | Ki [1, 3] | IC50 [2, 4] | Emax [2, 5] | RSAT Eff(%) [2, 5]
26 | COc1cccc2c(C(=O)C3CC3)cn(CCCN3C4CCC3CC(CCc3ccc(Cl)cc3)C4)c12 (stereo not shown) | 0.02 µM | 0.00398 µM | 103% |  |  |  | 
27 | COc1cccc2c(C(=O)NCc3cccc(C)c3)cn(CCCN3C4CCC3CC(CC(=O)c3ccc(Cl)cc3)C4)c12 (stereo not shown) | 0.0158 µM | 0.01 µM | 110% |  |  |  | 
28 | CC(=O)c1cn(CCCN2C3CCC2CC(Oc2ccc(Cl)cc2)C3)c2c(C)cccc12 (stereo not shown) |  |  |  | 0.126 µM | 0.00501 µM | 99% | 
29 | CC(=O)c1cn(CCCN2C3CCC2CC(CCc2ccc(Cl)cc2)C3)c2ncccc12 (stereo not shown) |  |  |  | 0.398 µM | 0.0794 µM | 87% | 
30 | COc1cccc2c(C(=O)C3CC3)cn(CCCN3CCCN(Cc4ccccc4Cl)CC3)c12 | 0.00794 µM | 0.000794 µM | 99% |  |  |  | 
31 | COc1cccc2c(C(C)=O)cn(CCCN3CCC(Cc4ccccc4)CC3)c12 |  |  |  | 0.794 µM | 0.0316 µM | 116% | 
32 | COc1cccc2c(C(=O)Cc3ccccc3)cn(CCCN3CCN(Oc4cccc(Cl)c4)CC3)c12 |  | 0.00316 µM | 88% | 0.0158 µM |  |  | 
33 | COc1cccc2c(C(=O)NCc3cccc(Cl)c3)cn(CCCN3CCCN(CCc4ccccc4)CC3)c12 | 0.158 µM | 0.02 µM | 125% |  |  |  | 
34 | COc1cccc2c(C(C)=O)cn(CCCN3C4CC[C@H]3C[C@@H](Oc3ccc(Cl)cc3)C4)c12 |  | 0.01 µM | 114% | 0.2 µM |  |  | 
35 | COc1cccc2c(C(C)=O)cn(CCCN3CCN(Oc4ccccc4Cl)CC3)c12 |  |  |  | 0.316 µM | 0.02 µM | 100% | 
36 | CC(=O)c1c(C)n(CCCN2C3CCC2CC(Oc2ccccc2Cl)C3)c2c(Br)cccc12 (stereo not shown) |  |  |  | 0.1 µM |  | 37% | 
37 | COc1cccc2c(C(=O)NCc3cccc(Cl)c3)cn(CCCN3C4CCC3CC(Oc3ccccc3Cl)C4)c12 (stereo not shown) |  |  |  | 0.02 µM | 0.00398 µM |  | 99%
38 | COc1cccc2c(C(=O)Cc3ccccc3)cn(CCCN3CCCC(Cc4ccccc4Cl)C3)c12 (stereo not shown) |  | 0.0251 µM | 116% | 0.126 µM |  |  | 
39 | COc1cccc2c(C#N)cn(CCCN3CCCN(Cc4ccccc4Cl)CC3)c12 |  |  |  | 0.0126 µM | 0.00251 µM | 137% | 
40 | COc1cccc2c(C(C)=O)cn(CCCN3CCC(Oc4ccc(Cl)cc4)CC3)c12 [drawing 276] |  | 0.00501 µM | 144% | 0.2 µM |  |  | 
41 | COc1cccc2c(C(=O)NCc3cccc(Cl)c3)cn(CCCN3CCC(c4nc5ccccc5s4)CC3)c12 | 0.251 µM | 0.0794 µM | 112% |  |  |  | 
42 | COc1cccc2c(C(=O)NCc3cccc(C)c3)cn(CCCN3C4CCC3CC(Oc3ccc(Cl)cc3)C4)c12 (stereo not shown) | 0.0501 µM | 0.000631 µM | 92% |  |  |  | 
43 | COc1cccc2c(C(C)=O)cn(CCCN3CCC(c4nc5ccccc5s4)CC3)c12 [drawing 310] |  | 0.01 µM | 102% | 0.158 µM |  |  | 
44 | CC(=O)c1cn(CCCN2C3CCC2CC(Oc2ccc(Cl)cc2)C3)c2c(Cl)cccc12 (stereo not shown) |  |  |  | 1 µM | 0.0501 µM | 104% | 
45 | CC(=O)c1cn(CCCN2CCC(Oc3ccccc3Cl)CC2)c2ccccc12 [drawing 599] |  |  |  | 2.51 µM |  |  | 116%
46 | COc1cccc2c(C(=O)c3ccccc3)cn(CCCN3C4CCC3CC(Oc3ccc(F)cc3)C4)c12 (stereo not shown) |  | 0.0126 µM | 106% | 0.158 µM |  |  | 
47 | CCCOC1CCN(CCCn2cc(C(C)=O)c3cccc(OC)c32)CC1 [drawing 333] |  |  |  | 2 µM | 0.0158 µM | 112% | 
48 | COc1ccc2c(c1)C1CCN(CCCn3cc(C(C)=O)c4ccccc43)CC1C2 (stereo not shown) |  |  |  | 5.01 µM | 1.26 µM | 110% | 
49 | CC(=O)c1cn(CCCN2CCC(Oc3ccc(Cl)cc3)CC2)c2c(Br)cccc12 |  |  |  | 0.1 µM | 0.00398 µM | 105% | 
50 | CCCCC(=O)c1cn(CCCN2CCC(Oc3ccc(Cl)cc3)CC2)c2ccc(OC)cc12 |  |  | 111% | 0.251 µM | 0.126 µM |  | 
